Data reported in patent EP0855181A2 (priority 1997, dated 1998).
Read-outs that look alike come from different tables or passages of the source.

Experiments:
[1] = test system: Human neutrophils (PMN)
Experimental: Human neutrophils (PMN) are isolated from EDTA-anticoagulated blood by Ficoll-density-centrifugation and by dextran sedimenation as described by Böyum, A. in Scand. J. Clin. Lab. Invest. 21(Suppl. 97):77-89, 1968.Variable concentrations of glycine (4.0 mM, 0.4 mM and 0.04 mM in a volume of 50 µl) and as a control 50 µl PBS are incubated with human neutrophils (2x10^7 cells/ml in a volume of 500 µl in Ca/Mg (1/0.5mM) and 0.25mM luminol) for 20 min at 37°C and stimulation is subsequently carried out with fMLP (N-formyl-methionyl-leucyl-phenylalanine, 10^-5M), NaF (20mM) or PMA (10 ng), each in a volume of 50µl, for 30 min at 37°C. fMLP is a receptor-mediated stimulus, NaF is a G-protein-mediated activator of cells and PMA activates the protein kinase C. As a control neutrophils are incubated with the variable glycine concentrations without subsequent stimulation. Respiratory burst is measured by chemiluminescence response of oxygen radicals essentially as described in Immunology, 1992, 76, 86-94.

[2] = test system: Peripheral mononuclear cells; details: glycine 0.00004-40 mM, 14 days, interleukin-4 and anti-CD40
Experimental: To this end, peripheral mononuclear cells (as in example 1) were incubated with variable concentrations of glycine (0.00004mM, 0.0004mM, 0.004mM, 0.04mM, 0.4mM, 4mM, 40mM). The incubation time is carried out over 14 days. The cells were stimulated in the presence of glycine with interleukin-4 and anti-CD40 as B-cell activator. In the supernatant, the IgM, IgA, IgG and IgE synthesis was analysed.

[3] = test system: Peripheral mononuclear cells (PMNs)
[4] = test system: Peripheral mononuclear cells (PMNs); remark: listed apart in the source
[5] = test system: Peripheral mononuclear cells
Experimental: Peripheral mononuclear cells (as in example 2 but in a concentration of 10^6/ml) are pre-incubated with SEB at variable concentrations (50 µl of 1 ng/ml, 0,1 ng/ml and 0.01 ng/ml) in the presence of variable concentrations of glycine (as above) for 24h, 48h and 72h or pre-incubated with glycine and subsequently stimulated with different concentrations of SEB.

[6] = test system: lymphocytes, monocytes, basophils (LMBs)
[7] = test system: superantigen primed neutrophils
[8] = test system: LMBs
[9] = test system: Neutrophils (PMNs)
Experimental: Neutrophils (PMNs, isolated as described in example 2, in a concentration of 2x10^7/ml in a volume of 500µl + 50 µl 1mM Ca/0.5mM Mg) are preincubated with glycine (0.0004mM, 0.004mM, 0.04mM, 0.4mM and 4mM in a volume of 50µl) for 20 or 30 minutes at 37°C. Subsequently they are treated with cytochalasin (50 µl, 10^-5M) and stimulated with 50 µl fMLP (10^-5M), NaF (20mM), or primed with 50µl GM-CSF (10ng) and subsequently stimulated with 50µl NaF (20mM), fMLP (10^-5M) or Ca-ionophore (5µM) and incubated for a further 20 minutes at 37°C. Leukotrienes are measured by HPLC as described in Immunology 67:401-407.

[10] = test system: lymphocytes, monocytes, basophils (LMBs); remark: listed apart in the source
[11] = cells primed with GM-CSF, variable glycine, then NaF
[12] = glycine pre-incubation over 30 minutes

Compound: NCC(=O)O [glycine]
- respiratory burst ([1]; glycine 0.04 mM, then fMLP): further modulation
- oxygen metabolites (respiratory burst) ([1]; glycine 4.0, 0.4, 0.04 mM, 20 min at 37°C, no subsequent stimulation): no effect
- respiratory burst ([1]; glycine pre-incubation, then NaF (20mM)): dose-dependent suppression and also an increase
- respiratory burst ([1]; glycine pre-incubation, then PMA (10 ng)): No changes
- induced IgE synthesis [2]: no affect
- other immunoglobulins (IgM, IgA, IgG synthesis) [2]: no changes
- IL-8 release [3]: significant increase
- interleukin-8 release ([3]; cells pre-incubated with interferon-γ, then staphylococcus enterotoxin B): dose-dependent stimulation
- interleukin-8 release ([3]; staphylococcus enterotoxin B stimulation): marginal increase
- TNF release ([4]; GM-CSF (10 ng) primed model, then SEB (10 ng)): suppression
- TNF release ([4]; RSV as stimulus): modulation
- TNF release ([4]; conditions of the interleukin-8 experiments): no significant changes
- TNF ([4]; glycine 0.0004-0.4 mM pre-incubation, then SEB (10 ng)): dose-dependent increase
- SEB-induced TNF release ([4]; glycine pre-incubation, then SEB): increase
- TNF release ([4]; glycine pre-incubation, then SEB, in dependence on stimulus): suppression
- TNF release ([4]; phospholipase C at variable concentrations as stimulus, 'also applies' refers to modulation): This also applies
- interferon-γ release ([5]; 48 hours glycine pre-incubation, subsequent RSV stimulation): intense increase
- interferon-γ release ([5]; 48 hours glycine pre-incubation, subsequent SEB stimulation (Fig. 2), refers to intense increase): similarly indicated
- interferon-γ release ([5]; RSV used instead of SEB): dose-dependent increase
- interferon-γ release ([5]; SEB with glycine, incubation of up to 48 hours): Marginal effects
- interferon-γ release ([5]; glycine pre-incubation over 72 hours, SEB as activator): increase
- release of interferon-γ ([5]; glycine pre-incubation, subsequent SEB stimulation): extremely potent release
- interferon-γ concentration ([5]; very long glycine pre-incubation and subsequent stimulation): reduction
- SEB-induced TNF-α release [6]: marked suppression
- TNF-α [6]: increase
- phospholipase C induced TNF-α release [6]: great suppression
- suppression of the TNF-α release [6]: lower
- staphylococcus enterotoxin B induced TNF-α release ([6]; LMBs incubated with interferon-γ 24 hours, then SEB): great suppression
- 20-carboxy-LTB4 [7]: drop
- LTC4 [7]: increase
- cysteinyl leukotrienes [7]: increase
- omega-LTB4 generation [7]: increase
- release of 12-HETE [7]: increase
- interleukin-12 release ([8]; GM-CSF priming, glycine 2 hours, then SEB, eliminated with low glycine concentrations): marginal reduction
- interleukin-12 release ([8]; glycine incubation alone, low concentrations of glycine): stimulatory effect
- LTB4 generation [9, 11]: inhibition
- LTC4 generation [9, 11]: inhibition
- LTB4 generation ([9]; cells primed with GM-CSF, variable glycine, then calcium ionophore): marginal increase
- LTB4 release ([9]; cells primed with GM-CSF, variable glycine, then fMLP): fluctuating
- fMLP-induced LTE4 generation ([9]; glycine 4.0 mM): suppressing influence
- LTB4 release [9, 12]: increase
- LTC4 release [9, 12]: suppression
- omega-LTB4 release [9, 12]: increase
- leukotriene-E4 ([9]; neutrophils activated with calcium ionophore in the presence of glycine): very strong suppression
- LTB4 generation ([9]; neutrophils in the presence of glycine, fMLP): suppression
- interleukin-10 [10]: increase
- release of interleukin-10 ([10]; glycine combined with staphylococcus enterotoxin B (Fig. 1)): significant release
